Measurements from ChEMBL document CHEMBL3638392, “6-1H-imidazo-quinazoline and quinolines derivatives, new MAO inhibitors and imidazoline receptor ligands” (2014).

Molecular target: T1, Amine oxidase [flavin-containing] A (Homo sapiens, UniProt P21397)
T1 sequence (P21397 whole entry): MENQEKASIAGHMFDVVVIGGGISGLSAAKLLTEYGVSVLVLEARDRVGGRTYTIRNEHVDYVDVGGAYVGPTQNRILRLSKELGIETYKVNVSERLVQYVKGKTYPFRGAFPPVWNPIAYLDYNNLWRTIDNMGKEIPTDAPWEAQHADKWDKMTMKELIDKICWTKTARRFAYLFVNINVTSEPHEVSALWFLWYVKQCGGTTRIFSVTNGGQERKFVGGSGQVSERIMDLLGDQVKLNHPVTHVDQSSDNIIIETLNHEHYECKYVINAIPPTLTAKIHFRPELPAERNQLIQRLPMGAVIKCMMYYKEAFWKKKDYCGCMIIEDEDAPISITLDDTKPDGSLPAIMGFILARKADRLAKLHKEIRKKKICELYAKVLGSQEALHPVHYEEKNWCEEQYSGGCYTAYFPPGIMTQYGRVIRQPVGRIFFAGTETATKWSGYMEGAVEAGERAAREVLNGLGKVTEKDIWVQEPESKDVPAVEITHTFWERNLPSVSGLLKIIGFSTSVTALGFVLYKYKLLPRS
Test: Activity Assay: Inhibitory activity of compounds was evaluated by a homogeneous luminescent method, the MAO-Glo Assay (Promega), measuring the monoamine oxidase activity (MAOs) from recombinant source (microsomes from baculovirus infected insect cells, Sigma).

CS(=O)(=O)c1ccc(-c2ccc3cc(-n4ccnc4)ccc3n2)cc1
IC50: 450 nM
